In ChEMBL document CHEMBL1955773, “Hit to lead SAR study on benzoxazole derivatives for an NPY Y5 antagonist” (Bioorg Med Chem Lett, 2012):

Tests used:
[1] = Metabolic stability of the compound in rat microsomes assessed as compound remaining after 30 mins; format: ADME, Microsome; settings: read-out: Stability
[2] = Bioavailability in rat at 0.5 mg/kg, iv and 1 mg/kg, po; format: ADME, organism-based; settings: in vivo
[3] = test system: Cerebrospinal fluid; assay: Drug uptake in rat cerebrospinal fluid at 0.5 mg/kg, iv and 1 mg/kg, po; format: ADME, organism-based; settings: in vivo, read-out: Drug uptake
[4] = Total clearance in rat at 0.5 mg/kg, iv and 1 mg/kg, po; format: ADME, organism-based; settings: in vivo
[5] = Cmax in rat at 0.5 mg/kg, iv and 1 mg/kg, po; format: ADME, organism-based; settings: in vivo
[6] = Volume of distribution at steady state in rat at 0.5 mg/kg, iv and 1 mg/kg, po; format: ADME, organism-based; settings: in vivo, read-out: Vdss
[7] = AUC (0 to infinity) in rat at 0.5 mg/kg, iv and 1 mg/kg, po; format: ADME, organism-based; settings: plasma
[8] = Ratio drug uptake in brain to plasma of rat at 1 mg/kg, po; format: ADME, organism-based; design: dose 1 mg/kg, route oral; settings: read-out: BPR

| remaining at 0.5 h [1] [%] | Compound | also measured |
| --- | --- | --- |
| 27 | CCS(=O)(=O)c1ccc2oc(Nc3ccc(C(C)(C)C)cc3)nc2c1 |  |
| 53 | CCS(=O)(=O)c1ccc2oc(Nc3ccccc3)nc2c1 |  |
| 81 | CCS(=O)(=O)c1ccc2oc(Nc3ccc(Cl)cc3)nc2c1 |  |
| 101 | CCS(=O)(=O)c1ccc2oc(Nc3ccc(C(F)(F)F)cc3)nc2c1 |  |
| 63 | CCS(=O)(=O)c1ccc2oc(Nc3cccc(C(F)(F)F)c3)nc2c1 |  |
| 68 | CCS(=O)(=O)c1ccc2oc(Nc3ccccc3C(F)(F)F)nc2c1 |  |
| 97 | CCS(=O)(=O)c1ccc2oc(Nc3ccc(OC(F)(F)F)cc3)nc2c1 |  |
| 73 | CCS(=O)(=O)c1ccc2oc(Nc3ccc(OC(C)C)cc3)nc2c1 | bioavailability [2]: 16%; concentration [3]: 8.8 nM; clearance [4]: 66 mL/min/kg; Cmax [5]: 6 ng/mL; Vd [6]: 2.62 L/kg; AUC(0-inf) [7]: 40 ng·h/mL; Kp [8]: 2.63 |
| 88 | CCS(=O)(=O)c1ccc2oc(Nc3ccc(N4CCOCC4)cc3)nc2c1 |  |
| 85 | CCS(=O)(=O)c1ccc2oc(Nc3ccc(N4C[C@@H](C)O[C@@H](C)C4)cc3)nc2c1 | bioavailability [2]: 52%; concentration [3]: 15.9 nM; clearance [4]: 33 mL/min/kg; Cmax [5]: 26 ng/mL; Vd [6]: 1.74 L/kg; AUC(0-inf) [7]: 260 ng·h/mL; Kp [8]: 0.64 |
| 61 | CCS(=O)(=O)c1ccc2oc(Nc3ccc(N4C[C@@H](C)O[C@@H](C)C4)c(F)c3)nc2c1 |  |
| 59 | CCS(=O)(=O)c1ccc2oc(Nc3ccc(N4C[C@@H](C)O[C@@H](C)C4)nc3)nc2c1 |  |
| 62 | CCOc1ccc(Nc2nc3cc(S(C)(=O)=O)ccc3o2)cc1 |  |
| 49 | CCOc1ccc(Nc2nc3cc(S(=O)(=O)C(C)C)ccc3o2)cc1 |  |
| 46 | CCOc1ccc(Nc2nc3cc(S(=O)(=O)C(C)(C)C)ccc3o2)cc1 |  |
| 59 | CCOc1ccc(Nc2nc3cc(NS(=O)(=O)CC)ccc3o2)cc1 |  |
| 81 | CCOc1ccc(Nc2nc3ccc(S(=O)(=O)CC)cc3o2)cc1 |  |
| 86 | CCOc1ccc(Nc2nc3ccc(NS(=O)(=O)CC)cc3o2)cc1 |  |
| 57 | CCOc1ccc(Nc2nc3ccc(NS(=O)(=O)C(C)(C)C)cc3o2)cc1 |  |
| 68 | C[C@@H]1CN(c2ccc(Nc3nc4ccc(NS(=O)(=O)C(C)(C)C)cc4o3)cc2)C[C@H](C)O1 |  |
| 45 | CCS(=O)(=O)c1ccc2oc(NC3CCCCC3)nc2c1 |  |
| 46 | CCS(=O)(=O)c1ccc2oc(NCc3ccccc3)nc2c1 |  |
| 35 | CCS(=O)(=O)c1ccc2oc(NC(C)(C)c3ccccc3)nc2c1 |  |
| 99 | CCS(=O)(=O)c1ccc2oc(Nc3ccc(C(F)(F)F)nc3)nc2c1 |  |
| 97 | CCS(=O)(=O)c1ccc2oc(Nc3ccc(C(F)(F)F)cn3)nc2c1 |  |
| 81 | CCS(=O)(=O)c1ccc2oc(Nc3ccc(N4CCOCC4)nc3)nc2c1 |  |
| 1 | CCS(=O)(=O)c1ccc2oc(NC3CCC(C(C)(C)C)CC3)nc2c1 (mixture of isomers) |  |
